Source: patent US20090246134A1, “COMPOSITIONS AND METHODS FOR MODULATING GATED ION CHANNELS” (PainCeptor Pharma Corporation, priority 2007, published 2009)

Tests used:
[1] = Plasma composition analysis, parent compound and metabolites by MS; assay type: in vivo; conditions: rat plasma; for Plasma Component: P-OH: Compound G: detected but not confirmed (footnote a)
Description: Rats receive compounds (5 mg/kg) dissolved in HPβCD 15%, dextrose 2.5%, pH 5 by intravenous (i.v). route or (25-30 mg/kg) dissolved in HPβCD 15%, dextrose 2.5%, […] (s.c.) route or (50-150 mg/kg) dissolved in HPβCD 15%, dextrose 2.5%, pH 5 by oral (p.o.) route. After the treatment, approximately 100 μl of blood sample is collected and the accurate bleeding time is recorded for each sample. Each blood sample is collected into Microvette blood collection tube containing anticoagulant lithium heparin. Following collection, the samples are centrifuged at […] for 15 minutes (to avoid haemolysis) and the plasma obtained from each is recovered and stored frozen (at −80° C.) pending analysis. Frozen samples are shipped on dry ice to quantify drug concentration within plasma after extraction procedure as previously described in Example 13.

ASIC1a [2] = biological target: T1, ASIC1a (Homo sapiens, UniProt P78348); test: Calcium-imaging (calcium mobilization, FLIPR) assay in ASIC1a expressing HEK293 cells; assay type: cell-based; set-up: host or cells: HEK293; conditions: n=3-7, compounds not radiolabelled
T1 sequence (P78348 1-528): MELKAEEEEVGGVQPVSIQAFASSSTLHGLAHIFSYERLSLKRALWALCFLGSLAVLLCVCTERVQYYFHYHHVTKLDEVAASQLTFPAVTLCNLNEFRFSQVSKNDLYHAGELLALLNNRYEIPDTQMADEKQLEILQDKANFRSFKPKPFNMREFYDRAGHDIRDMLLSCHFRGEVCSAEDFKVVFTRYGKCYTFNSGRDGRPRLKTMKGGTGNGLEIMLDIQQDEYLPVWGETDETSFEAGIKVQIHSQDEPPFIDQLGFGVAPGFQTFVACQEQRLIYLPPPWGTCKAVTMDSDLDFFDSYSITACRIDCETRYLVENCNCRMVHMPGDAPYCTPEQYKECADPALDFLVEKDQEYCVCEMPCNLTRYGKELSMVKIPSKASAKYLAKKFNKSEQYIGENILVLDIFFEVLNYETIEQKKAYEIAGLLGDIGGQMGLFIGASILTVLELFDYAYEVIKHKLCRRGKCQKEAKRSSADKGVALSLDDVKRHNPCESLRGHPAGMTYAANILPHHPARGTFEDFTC
Description: ASIC1a expressing HEK293 cells are grown in culture medium (DMEM with 10% FBS), in polystyrene culture flasks ([…]) at 37° C. in a humidified atmosphere of 5% CO2. Confluency of cells should be 80-90% on day of plating. Cells are rinsed with 10 ml of PBS and re-suspended by addition of culture medium and trituration with a 25 ml pipette.
The cells are seeded at a density of approximately 1×10^6 cells/ml (100 μl/well) in black-walled, clear bottom, 96-well plates pre-treated with 10 mg/l poly-D-lysin (75 μl/well for ≧30 min). Plated cells were allowed to proliferate for 24 h before loading with dye.
Fluo-4/AM (1 mg, Molecular Probes) is dissolved in 912 μl DMSO. The Fluo-4/AM stock solution (1 mM) is diluted with culture medium to a final concentration of 2 μM (loading solution).
The culture medium is aspirated from the wells, and 50 μl of the Fluo-4/AM loading solution is added to each well. The cells are incubated at 37° C. for 30 min.
After the loading period, the loading solution is aspirated and the cells are washed twice with 100 μl modified Assay Buffer (145 mM NaCl, 5 mM KCl, 5 mM CaCl2, 1 mM MgCl2, 10 mM HEPES, pH 7.4) to remove extracellular dye. Following the second wash, 100 μl modified Assay Buffer is added to each well and the fluorescence is measured in FLIPR™ or FlexStation™ (Molecular Devices, USA), or any other suitable equipment known to the skilled in the art.
Temperature: Room temperature (20-22° C.)
First addition: 50 μl test solution at a rate of 30 μl/sec and a starting height of […]
Second addition: 50 μl MES solution (20 mM, 5 mM final concentration) at a rate of 35 μl/sec and a starting height of 150 μl.
Reading intervals: pre-incubation—10 sec×7 and 3 sec×3 antagonist phase—3 sec×17 and 10 sec×12
Addition plates (compound test plate and MES plate) are placed on the right and left positions in the FLIPR tray, respectively. Cell plates are placed in the middle position and the ASIC1a program is effectuated. FLIPR will then take the appropriate measurements in accordance with the interval settings above. Fluorescence obtained after stimulation is corrected for the mean basal fluorescence (in modified Assay Buffer).
The MES-induced peak calcium response, in the presence of test substance, is expressed relatively to the MES response alone. Test substances that block the MES-induced calcium response are re-tested in triplicates. Confirmed hits are picked for further characterization by performing full dose-response curves to determine potency of each hit compound as represented by the IC50 values (i.e., the concentration of the test substance which inhibits 50% of the MES-induced calcium response).
It is noted that the compounds below are not radiolabelled.

ASIC1a [3] = biological target: T1, ASIC1a; test: Whole cell patch clamp in heterologous expression system (CHO cells); assay type: cell-based; set-up: expressed in transfected cells; host or cells: CHO cells
Description: Another example of an in vitro assessment method consists of using mammalian heterologous expression systems, which are known to the skilled in the art, and include a variety of mammalian cell lines such as COS, HEK, e.g., HEK293 and/or CHO, cells. Cell lines are transfected with gated ion channel(s) and used to perform electrophysiology as follows:
All experiments are performed at room temperature (20-25° C.) in voltage clamp using conventional whole cell patch clamp methods (Neher, E., et al. (1978) Pfluegers Arch 375:219-228).
The amplifier used is the EPC-9 (HEKA-electronics, Lambrect, Germany) run by a Macintosh G3 computer via an ITC-16 interface. Experimental conditions are set with the Pulse-software accompanying the amplifier. Data is low pass filtered and sampled directly to hard-disk at a rate of 3 times the cut-off frequency.
Pipettes are pulled from borosilicate glass using a horizontal electrode puller (Zeitz-lnstrumente, Augsburg, Germany). The pipette resistances are 2-3 MOhms in the salt solutions used in these experiments. The pipette electrode is a chloridized silver wire, and the reference is a silver chloride pellet electrode (In Vivo Metric, Healdsburg, USA) fixed to the experimental chamber. The electrodes are zeroed with the open pipette in the bath just prior to sealing.
Coverslips with the cells are transferred to a 15 μl experimental chamber mounted on the stage of an inverted microscope (IMT-2, Olympus) supplied with Nomarski optics. Cells are continuously superfused with extracellular saline at a rate of 2.5 ml/min. After giga-seal formation, the whole cell configuration is attained by suction. The cells are held at a holding voltage of −60 mV and at the start of each experiment the current is continuously measured for 45 s to ensure a stable baseline. […] Current amplitudes are measured at the peak of the responses, and effect of the compounds is calculated as the amplitude at compound equilibrium divided by the amplitude of the current evoked by the pulse just before the compound was included. […]

[4] = test system: CFA-induced change in weight bearing in Sprague-Dawley rats; test: CFA model of chronic inflammatory pain, hindpaw weight bearing; assay type: in vivo, rat; conditions: 24 h after CFA; 60 min after drug; Compound A 5, 10, 20 mg/kg i.p.; Compound H 10, 30, 60 mg/kg; morphine 3, 6, 10 mg/kg; n=7-8
Description: Rats (body weight 260-300 g) were given a s.c. injection of CFA (50% in saline, 100 μl, Sigma) into the plantar surface of the hindpaw under brief halothane anaesthesia. After 24 h, they were then tested for hindpaw weight bearing responses, as assessed using an Incapacitance Tester (Linton Instrumentation, UK), (Zhu et al., 2005). The instrument incorporates a dual channel scale that separately measures the weight of the animal distributed to each hindpaw. While normal rats distribute their body weight equally between the two hindpaws (50-50), the discrepancy of weight distribution between an injured and non-injured paw is a natural reflection of the discomfort level in the injured paw (nocifensive behavior). The rats were placed in the plastic chamber designed so that each hindpaw rested on a separate transducer pad. […] For each rat, three readings from each paw were taken and then averaged. Side-to-side weight bearing difference was calculated as the average of the absolute value of the difference between two hindpaws from three trials (right paw reading-left paw reading).
Hindpaw weight bearing responses were measured in male Sprague-Dawley rats for 2-3 days prior to being given a hindpaw injection of CFA. Twenty-four hours later baseline responses were measured and rats were then administered Compound A (5, 10 and 20 mg/kg, i.p.), Compound H (10, 30 and 60 mg/kg) and morphine (3, 6 and 10 mg/kg). Weight bearing responses were then measured at 30, 60 and 120 min after drug or vehicle injection (data shown at 60 min.). […] All groups n=7-8.

What does the source list for `CCN1CCc2c(-c3ccccc3OC)cc3c(c2C1)NC(=O)/C3=N/O` [Compound J, 5-(2-methoxy-phenyl)-6,7,8,9-tetrahydro-3-(hydroxyimino)-8-ethyl-1H-pyrrolo[3,2-h]isoquinoline-2(3H)-one]?
Plasma Component: N-desEt ([1]; IV 5 mg/kg): Small; Plasma Component: O-desMe ([1]; IV 5 mg/kg (table of Compounds G and J)): Small; Plasma Component: P-OH ([1]; IV 5 mg/kg): Small; Plasma Component: N-desEt ([1]; PO 50 mg/kg): Small; Plasma Component: O-desMe ([1]; PO 50 mg/kg (table of Compounds G and J)): Small; Plasma Component: P-OH ([1]; PO 50 mg/kg): Small; IC50 (ASIC1a [2]): 700 nM

Which “human ASIC1a pH-evoked response” value (ASIC1a [3]) does the source give for `N=C(N)NC(=O)c1nc(Cl)c(N)nc1N` [amiloride, reference compound] here?
The value was “reduce the human ASIC1a pH-evoked response in CHO cells in a dose-dependent manner”.

Which “CFA-induced change in weight bearing compared with vehicle” value [4] does the source give for `CN1CC[C@]23c4c5ccc(O)c4O[C@H]2[C@@H](O)C=C[C@H]3[C@H]1C5` [morphine, reference compound] here?
Its value is “marked dose-dependent attenuation”.
